According to ChEMBL document CHEMBL1157685, “Biotransformation of isoimperatorin and imperatorin by Glomerella cingulata and beta-secretase inhibitory activity” (Bioorg Med Chem, 2010):
The source made the active and inactive calls. The rule behind the calls is not given here.

Assays:
[1] = target: T1, Beta-secretase 1 (Homo sapiens, UniProt P56817); assay: Inhibition of human recombinant BACE1 after 60 mins by fluorescence assay
[2] = target: T1, Beta-secretase 1
Description: Competitive inhibition of human recombinant BACE1 by Lineweaver-Burke plot analysis

[3] = target: T1, Beta-secretase 1; assay: Inhibition of human recombinant BACE1 at 100 to 500 uM after 60 mins by fluorescence assay

T1 sequence (P56817 whole entry): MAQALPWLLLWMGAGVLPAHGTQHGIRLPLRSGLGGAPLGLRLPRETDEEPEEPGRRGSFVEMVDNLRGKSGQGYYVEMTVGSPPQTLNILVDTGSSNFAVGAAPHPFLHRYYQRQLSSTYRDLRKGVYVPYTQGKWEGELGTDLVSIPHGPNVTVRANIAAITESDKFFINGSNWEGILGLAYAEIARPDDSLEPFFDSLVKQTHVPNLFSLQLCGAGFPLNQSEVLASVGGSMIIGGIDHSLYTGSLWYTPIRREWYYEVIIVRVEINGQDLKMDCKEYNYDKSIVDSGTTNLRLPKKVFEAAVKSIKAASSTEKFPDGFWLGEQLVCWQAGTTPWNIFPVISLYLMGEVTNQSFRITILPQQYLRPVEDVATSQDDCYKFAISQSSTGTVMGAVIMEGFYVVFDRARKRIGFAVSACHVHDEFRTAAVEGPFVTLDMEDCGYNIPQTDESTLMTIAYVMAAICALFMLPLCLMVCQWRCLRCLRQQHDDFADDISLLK

In the case of COc1cc2occc2c(OCC=C(C)C)c1CCC(=O)O, the IC50 [1] is reported as 203 µM and the inhibition [1] is reported as “Dose-dependent effect”.
With COC(=O)CCc1c(O)cc2occc2c1OCC=C(C)C the IC50 [1] was 30.5 µM, the inhibition [1] was “Dose-dependent effect” and the Kic [2] was 11.3 µM.
With CC(C)=CCOc1c2ccoc2cc2oc(=O)ccc12 [ISOIMPERATORIN] the IC50 [1] was 244 µM and the inhibition [1] was “Dose-dependent effect”.
With CC(C)=CCOc1c2occc2cc2ccc(=O)oc12 [PENTOSALEN] the IC50 [1] was 91.8 µM and the inhibition [1] was “Dose-dependent effect”.
O=c1ccc2cc3ccoc3c(O)c2o1 was tested, and the inhibition [3] was “inactive” and the inhibition [1] was “Dose-dependent effect”.
With COC(=O)CCc1c(OC)cc2occc2c1OCC=C(C)C the IC50 [1] was 16.2 µM and the inhibition [1] was “Dose-dependent effect”.
With CC(C)=CCOc1c(CCC(=O)O)c(O)cc2occc12 the IC50 [1] was 186 µM and the inhibition [1] was “Dose-dependent effect”.
